Experiment [1] has as its target T1, CD73 expressed on the MDA-MB-231 cell surface (Homo sapiens, UniProt P21589).
T1 construct: host or cells: MDA-MB-231
T1 sequence (P21589 27-549): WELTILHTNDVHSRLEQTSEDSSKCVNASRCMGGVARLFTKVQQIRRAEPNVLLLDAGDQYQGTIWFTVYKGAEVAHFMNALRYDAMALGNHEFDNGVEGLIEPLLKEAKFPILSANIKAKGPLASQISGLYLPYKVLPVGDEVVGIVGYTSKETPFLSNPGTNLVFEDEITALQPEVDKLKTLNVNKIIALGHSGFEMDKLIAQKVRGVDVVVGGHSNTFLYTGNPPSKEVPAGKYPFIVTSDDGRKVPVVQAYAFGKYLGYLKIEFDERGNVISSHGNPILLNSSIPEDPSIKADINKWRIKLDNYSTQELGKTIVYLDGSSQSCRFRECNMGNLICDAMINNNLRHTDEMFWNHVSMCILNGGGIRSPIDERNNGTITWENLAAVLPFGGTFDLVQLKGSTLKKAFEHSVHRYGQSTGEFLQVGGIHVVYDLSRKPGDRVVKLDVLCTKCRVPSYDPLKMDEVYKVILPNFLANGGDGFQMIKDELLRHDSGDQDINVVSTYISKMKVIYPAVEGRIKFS
The experiment can be described thus: Cell-based CD73 enzyme inhibition assay on MDA-MB-231 cells. The following applies: AMP 400 μM, 3 h (FIG. 3). The procedure:
The cell-based CD73 enzyme inhibition assay was performed essentially as described above for the cell-free assay, with the following modifications.
(§1) The cell-based CD73 enzyme inhibition assay was performed essentially as described above for the cell-free assay, with the following modifications. MDA-MB-231 human breast adenocarcinoma cells (ATCC CRM-HTB-26) were seeded at 2×10^4 cells/well/100 μL into 96-well tissue culture-treated plates (Corning Costar cat no. 3596) and incubated overnight at 37° C., 5% CO2. […] The 96-well plate was then centrifuged at 125×g for 5 min at room temperature and ATP (25 μL/well, 100 μM final) was combined with supernatant (25 μL/well) in a white opaque 96-well plate (Corning Costar cat no. 3912).
as §1, with “3912). […] Percent CD73 inhibition (y-axis) versus log10 inhibitor concentration (x-axis) were plotted using GraphPad Prism Version 8 and IC50's calculated using nonlinear regression analysis (Sigmoidal, 4 PL).” for “3912).”

In experiment [2] the target is T2, surface-expressed CD73 on human PBMCs (Homo sapiens, UniProt P21589).
T2 construct: 72400 (T cells); host or cells: human PBMCs / human T cells
T2 sequence (P21589 27-549): T1 sequence (P21589 27-549)
The experiment can be described thus: Human immune cell-based CD73 enzyme inhibition assay (PBMCs). The following applies: AMP 300 μM, 2.5-3 h. The procedure: The human immune cell-based CD73 enzyme inhibition assay was performed essentially as described above For the cell-free assay, with the following modifications. Human PBMCs (cat. no. HUMAN-PBMC-U-211140) or T cells (cat. no. 72400, Stem Cell Tech) were seeded at 8×10^3 cells/well into 96-well tissue culture-treated plates. […] Percent CD73 inhibition versus concentration were plotted using GraphPad Prism Version 8 and IC50's calculated using nonlinear regression analysis ([inhibitor]vs normalized response).

The test system of experiment [3] is adenosine production by human PBMCs. The experiment can be described thus: PBMC activation assay, AMP conversion by CellTiter-Glo. The format is cell-based. The following applies: 30 μM AMP, 72 h. As to the method: Human PBMCs (StemCell Technologies cat no. 70025) prepared in ImmunoCult™—XF T cell Expansion medium (StemCell Technologies cat no. 10981) were seeded at 1×10^5 cells per well (100 μL of 1×10^6 cells/mL) in the presence or absence of T cell activator anti-CD3/CD28/CD2 (StemCell Technologies cat no. 10970) in 96 well round bottom plates (Corning cat no. 3788). Ten-fold serial dilutions of each test article was prepared in medium (ranging from 4,000 nM-0.4 nM), resulting in final concentrations ranging from 1,000 nM-0.1 nM. 50 μL of test article was added to the cells, followed by 50 μL of adenosine 5′ monophosphate (AMP; MilliporeSigma cat no. A1752) for a final concentration of 30 μM. Plates were incubated at 37° C. with 5% CO2 for 72 h. After 72 h the cells were centrifuged for 5 min at 300×g at 4° C. and the supernatant was reserved for analysis of AMP conversion using CellTiter-Glo (Promega cat no. G7571).
25 μL of reserved supernatant was transferred to a white 96-well plate (Corning cat no. 3917) and combined with 25 μL of a 1 μM adenosine 5′ triphosphate (ATP; MilliporeSigma cat no. A7699) solution. 50 μL of CellTiter-Glo reagent was added, and the plate incubated for 10 min at room temperature. Luminescence was measured using an EnSpire plate reader (PerkinElmer). […]
For orientation: ATP-based viability assays read luminescence as a measure of living cells.

With `COC[C@](CO)(OC[C@H]1O[C@@H](n2ncc3c(NC4CCCC4)nc(Cl)nc32)[C@H](O)[C@@H]1O)P(=O)(O)O` [OP-5244], the concentration for half-maximal inhibition (IC50) (commonly the concentration that gives 50% inhibition) in experiment [1] stood at 0.31 nM.

Turning to `O=P(O)(O)COC[C@H]1O[C@@H](n2ncc3c(N4CC5(CCc6ccccc65)C4)nc(Cl)nc32)[C@H](O)[C@@H]1O` [SHR170008], the midpoint of inhibition in experiment [1], the IC50, lay at 4.87 nM.

The molecule `COC[C@](CO)(OC[C@H]1O[C@@H](n2ncc3c(NC4CCCC4)nc(Cl)nc32)[C@H](O)[C@@H]1O)P(=O)(O)O` [OP5244] registered an IC50 in experiment [2] of 0.02 nM. For the same molecule, the EC50 (as a rule, the concentration giving half of the maximal effect) in experiment [3] amounted to 1 nM.

In experiment [3] (Homo sapiens, PBMC), `C[C@H](Nc1cc(Cl)nc2c1cnn2[C@@H]1O[C@H](COP(=O)(O)CP(=O)(O)O)[C@@H](O)[C@H]1O)c1ccccc1F` [AB680] returned an EC50 of 5 nM.
